Results reported in ChEMBL document CHEMBL4376830, “Diterpenoids and Bisnorditerpenoids from Blumea aromatica” (2019).
Activity calls are given as the source filed them. The calls are words filed in the database; no cut-off is given here.

The compounds below were run on RAW264.7 (assay: Anti-inflammatory activity in LPS-stimulated mouse RAW264.7 cells assessed as reduction in TNF-alpha production at 40 uM by ELISA relative to control).
Format: functional
With `COc1ccc(-c2oc3cc(O)c(OC)c(O)c3c(=O)c2OC)cc1` [SANTIN] the inhibition at 40 µM was 24%.
Work on `CC1(C)C[C@H](O)C[C@@](C)(O)/C1=C\C(=O)O` yielded an inhibition at 40 µM of 27.5%.
`O=C(/C=C/c1ccc(O)c(O)c1)O[C@@H]1[C@H](O)C[C@](O)(C(=O)O)C[C@H]1OC(=O)/C=C/c1ccc(O)c(O)c1` showed an inhibition at 40 µM of 15.5%.

Organism: Mus musculus
Experiment: Anti-immunosuppressive activity in LPS-activated mouse MDSC assessed as reduction in PD-L1 expression at 20 to 40 uM incubated for 24 hrs by flow cytometry
Format: functional
In the case of `CCCCOC(=O)[C@@]1(O)C[C@@H](O)[C@@H](OC(=O)/C=C/c2ccc(O)c(O)c2)[C@H](OC(=O)/C=C/c2ccc(O)c(O)c2)C1`, the inhibition is reported as “inactive”.
In the case of `O=C(/C=C/c1ccc(O)c(O)c1)O[C@@H]1C[C@](OC(=O)/C=C/c2ccc(O)c(O)c2)(C(=O)O)C[C@@H](O)[C@@H]1O`, the inhibition is reported as “inactive”.
For `C=CC(=C)[C@@H](O)C[C@H]1[C@](C)(O)[C@@H](O)[C@H](O)[C@H]2C(C)(C)CCC[C@@]21C`, the inhibition was “inactive”.
`O=C(O)/C=C/C(=O)O` was tested, and the inhibition was “inactive”.
With `CCC(C)/C(=C/C(=O)O)C(=O)O` (stereo unspecified) the inhibition was “inactive”.
`O=C(/C=C/c1ccc(O)c(O)c1)O[C@H]1[C@H](O)C[C@](O)(C(=O)O)C[C@H]1OC(=O)/C=C/c1ccc(O)c(O)c1` was tested, and the inhibition was “inactive”.
`COc1ccc(-c2oc3cc(O)c(OC)c(O)c3c(=O)c2OC)cc1` [SANTIN] was tested, and the inhibition was “inactive”.
With `C=C/C(C)=C/C[C@H]1[C@](C)(O)[C@@H](O)[C@H](OC(=O)CC(C)C)[C@H]2C(C)(C)CCC[C@@]21C` the inhibition was “inactive”.
`O=C(/C=C/c1ccc(O)c(O)c1)O[C@@H]1C[C@@](O)(C(=O)O)C[C@@H](O)[C@H]1O` was tested, and the inhibition was “inactive”.
With `CC(=O)/C=C/[C@H]1[C@](C)(O)[C@@H](O)[C@H](OC(=O)C=C(C)C)[C@H]2C(C)(C)CCC[C@@]21C` the inhibition was “inactive”.
For `C=C/C(C)=C/C[C@H]1[C@](C)(O)[C@@H](O)[C@H](O)[C@H]2C(C)(C)CCC[C@@]21C`, the inhibition was “inactive”.
For `O=Cc1c[nH]c2ccccc12`, the inhibition was “inactive”.
For `C=CC(=C)[C@H](O)C[C@H]1[C@](C)(O)[C@@H](O)[C@H](O)[C@H]2C(C)(C)CCC[C@@]21C`, the inhibition was “inactive”.
`CC(=O)/C=C/[C@H]1[C@](C)(O)[C@@H](O)[C@H](OC(=O)CC(C)C)[C@H]2C(C)(C)CCC[C@@]21C` was tested, and the inhibition was “inactive”.
For `O=C(/C=C/c1ccc(O)c(O)c1)O[C@@H]1C[C@](O)(C(=O)O)C[C@@H](OC(=O)/C=C/c2ccc(O)c(O)c2)[C@@H]1O`, the inhibition was “inactive”.
In the case of `CC[C@H](CC[C@@H](C)[C@H]1CC[C@H]2[C@@H]3CC=C4C[C@@H](O)CC[C@]4(C)[C@H]3CC[C@]12C)C(C)C`, the inhibition is reported as “inactive”.
For `CC(=O)/C=C/[C@H]1[C@](C)(O)[C@@H](O)[C@H](O)[C@H]2C(C)(C)CCC[C@@]21C`, the inhibition was “inactive”.
With `CC1(C)C[C@H](O)C[C@@](C)(O)/C1=C\C(=O)O` the inhibition was “inactive”.
For `COC(=O)[C@@]1(O)C[C@@H](O)[C@@H](OC(=O)/C=C/c2ccc(O)c(O)c2)[C@H](OC(=O)/C=C/c2ccc(O)c(O)c2)C1`, the inhibition was “inactive”.
With `O=C(/C=C/c1ccc(O)c(O)c1)O[C@@H]1[C@H](O)C[C@](O)(C(=O)O)C[C@H]1OC(=O)/C=C/c1ccc(O)c(O)c1` the inhibition was “inactive”.
With `CCC(C)/C(=C/C(=O)O)C(=O)OC` (stereo unspecified) the inhibition was “inactive”.
With `O=c1c(O[C@@H]2O[C@H](CO)[C@@H](O)[C@H](O)[C@H]2O)c(-c2ccc(O)cc2)oc2cc(O)cc(O)c12` the inhibition was “inactive”.
`C/C=C(/C)C(=O)O[C@H]1[C@H](O)[C@@](C)(O)[C@H](/C=C/C(C)=O)[C@@]2(C)CCCC(C)(C)[C@H]12` was tested, and the inhibition was “inactive”.
